Active and inactive are the calls of the source. The calls are words filed in the database; no cut-off is given here.
Assays:
[1] = system: HepG2; assay: Induction of cell cycle arrest in human HepG2 cells incubated for 48 hrs by PI staining based flow cytometry analysis; format: functional; details: dose 5-20 µM
[2] = Upregulation of IL1A expression level in human HepG2 cells assessed as fold change by KEGG enrichment analysis; format: functional
[3] = […] of CCND1 expression level in human HepG2 cells assessed as fold change by KEGG enrichment analysis; format: functional
[4] = Upregulation of DDIT3 expression level in human HepG2 cells assessed as fold change by KEGG enrichment analysis; format: functional
[5] = system: HepG2; assay: Induction of cell cycle arrest in human HepG2 cells assessed as assessed as accumulation of cells at S phase at 10 uM incubated for 12 hrs by PI staining based flow cytometry analysis (reference value: 39.6%); format: functional
[6] = system: HepG2; assay: Induction of cell cycle arrest in human HepG2 cells assessed as accumulation of cells at <2N phase at 5 uM incubated for 48 hrs by PI staining based flow cytometry analysis (reference value: 0.027%); format: functional
[7] = Downregulation of DKK1 expression level in human HepG2 cells assessed as fold change by KEGG enrichment analysis; format: functional
[8] = Upregulation of CDKN1A expression level in human HepG2 cells assessed as fold change by KEGG enrichment analysis; format: functional
[9] = Upregulation of NGFR expression level in human HepG2 cells assessed as fold change by KEGG enrichment analysis; format: functional
[10] = Upregulation of CXCL2 expression level in human HepG2 cells assessed as fold change by KEGG enrichment analysis; format: functional
[11] = system: HepG2; assay: Induction of apoptosis in human HepG2 cells assessed as necrotic cells at 20 uM incubated for 48 hrs by annexin V-FITC/PI staining based flow cytometry analysis (reference value: 0%); format: functional
[12] = system: Cell membrane; assay: Induction of mitochondrial membrane potential loss in human HepG2 cells assessed as decrease in fluorescence at 5 uM measured after 48 hrs by Rhodamine 123 staining based flow cytometry (reference value: 66.8%); format: cell membranes; set-up: scale not given: the % may be the effect or the level left
[13] = system: HepG2; assay: Induction of cell cycle arrest in human HepG2 cells assessed as accumulation of cells at G2/M phase at 20 uM incubated for 48 hrs by PI staining based flow cytometry analysis (reference value: 6.38%); format: functional
[14] = Antiproliferative activity against mouse L929 cells incubated for 48 hrs by MTT assay; format: toxicity, cell-based
[15] = system: BEL-7404 tumor cell line; assay: Antiproliferative activity against human BEL-7404 tumor cell line incubated for 48 hrs by MTT assay; format: functional, cell-based; details: BEL-7404, 48 h
[16] = biological target: Voltage-gated inwardly rectifying potassium channel KCNH2 (Homo sapiens, UniProt Q12809); assay: Inhibition of human ERG; format: toxicity
[17] = Upregulation of TRAF1 expression level in human HepG2 cells assessed as fold change by KEGG enrichment analysis; format: functional
[18] = system: MDA-MB-231; assay: Antiproliferative activity against human MDA-MB-231 cells incubated for 48 hrs by MTT assay; format: functional, cell-based; details: MDA-MB-231, 48 h
[19] = Upregulation of PGF expression level in human HepG2 cells assessed as fold change by KEGG enrichment analysis; format: functional
[20] = Toxicity in Balb/c mouse assessed as effect on heart at 6 mg/kg, iv measured after 14 days by H and E staining based analysis; format: organism-based; details: in vivo, 336 h, time 14 day
[21] = system: HepG2; assay: Induction of apoptosis in human HepG2 cells assessed as necrotic cells at 5 uM incubated for 48 hrs by annexin V-FITC/PI staining based flow cytometry analysis (reference value: 0%); format: functional
[22] = Upregulation of SYVN1 expression level in human HepG2 cells assessed as fold change by KEGG enrichment analysis; format: functional
[23] = in vitro; details: human, Caco-2
Description: Apparent permeability of compound in human Caco-2 cells at 10 uM measured upto 120 mins by LC-MS/MS analysis

[24] = system: HepG2; assay: Induction of apoptosis in human HepG2 cells assessed as early apoptotic cells at 5 uM incubated for 48 hrs by annexin V-FITC/PI staining based flow cytometry analysis (reference value: 0.50%); format: functional
[25] = system: HepG2; assay: Induction of cell cycle arrest in human HepG2 cells assessed as accumulation of cells at G2/M phase at 5 uM incubated for 48 hrs by PI staining based flow cytometry analysis (reference value: 6.38%); format: functional
[26] = Mutagenicity in Salmonella typhimurium by Ames test; format: toxicity; details: salmonella enterica subsp. enterica serovar typhimurium
[27] = Upregulation of DET1 expression level in human HepG2 cells assessed as fold change by KEGG enrichment analysis; format: functional
[28] = system: HepG2; assay: Induction of cell cycle arrest in human HepG2 cells assessed as accumulation of cells at <2N phase at 10 uM incubated for 48 hrs by PI staining based flow cytometry analysis (reference value: 0.027%); format: functional
[29] = system: HepG2; assay: Induction of morphological changes in human HepG2 cells assessed as increase in cell death at 40 uM measured after 48 hrs by fluorescence inverted microscopic analysis; format: functional, cell-based
[30] = system: HepG2; assay: Induction of apoptosis in human HepG2 cells assessed as necrotic cells at 10 uM incubated for 48 hrs by annexin V-FITC/PI staining based flow cytometry analysis (reference value: 0%); format: functional
[31] = system: HepG2; assay: Induction of cell cycle arrest in human HepG2 cells assessed as accumulation of cells at 2N phase at 5 uM incubated for 48 hrs by PI staining based flow cytometry analysis (reference value: 26.0%); format: functional
[32] = system: HepG2; assay: Induction of cell cycle arrest in human HepG2 cells assessed as accumulation of cells at 2N phase at 10 uM incubated for 24 hrs by PI staining based flow cytometry analysis (reference value: 26.0%); format: functional
[33] = Apparent permeability of compound; format: ADME; details: not told
[34] = Upregulation of SESN3 expression level in human HepG2 cells assessed as fold change by KEGG enrichment analysis; format: functional
[35] = Downregulation of RSPO3 expression level in human HepG2 cells assessed as fold change by KEGG enrichment analysis; format: functional
[36] = system: HepG2; assay: Induction of cell cycle arrest in human HepG2 cells assessed as assessed as accumulation of cells at 2N phase at 10 uM incubated for 12 hrs by PI staining based flow cytometry analysis (reference value: 26.0%); format: functional
[37] = Upregulation of SOCS1 expression level in human HepG2 cells assessed as fold change by KEGG enrichment analysis; format: functional
[38] = system: HepG2; assay: Upregulation of p53 level in human HepG2 cells at 5 to 20 uM measured after 48 hrs by Western blot analysis; format: functional, cell-based; details: dose 5-20 µM
[39] = system: HepG2; assay: Induction of morphological changes in human HepG2 cells assessed as cell shrinkage at 40 uM measured after 12 to 24 hrs by fluorescence inverted microscopic analysis; format: functional, cell-based; details: time 12-24 hrs
[40] = system: HepG2; assay: Antiproliferative activity against human HepG2 cells incubated for 48 hrs by MTT assay; format: functional, cell-based; details: HepG2, 48 h
[41] = system: HepG2; assay: Induction of cell cycle arrest in human HepG2 cells assessed as assessed as accumulation of cells at G2/M phase at 10 uM incubated for 12 hrs by PI staining based flow cytometry analysis (reference value: 6.38%); format: functional
[42] = Upregulation of […] expression level in human HepG2 cells assessed as fold change by KEGG enrichment analysis; format: functional

Voltage-gated inwardly rectifying potassium channel KCNH2, sequence (Q12809 whole entry): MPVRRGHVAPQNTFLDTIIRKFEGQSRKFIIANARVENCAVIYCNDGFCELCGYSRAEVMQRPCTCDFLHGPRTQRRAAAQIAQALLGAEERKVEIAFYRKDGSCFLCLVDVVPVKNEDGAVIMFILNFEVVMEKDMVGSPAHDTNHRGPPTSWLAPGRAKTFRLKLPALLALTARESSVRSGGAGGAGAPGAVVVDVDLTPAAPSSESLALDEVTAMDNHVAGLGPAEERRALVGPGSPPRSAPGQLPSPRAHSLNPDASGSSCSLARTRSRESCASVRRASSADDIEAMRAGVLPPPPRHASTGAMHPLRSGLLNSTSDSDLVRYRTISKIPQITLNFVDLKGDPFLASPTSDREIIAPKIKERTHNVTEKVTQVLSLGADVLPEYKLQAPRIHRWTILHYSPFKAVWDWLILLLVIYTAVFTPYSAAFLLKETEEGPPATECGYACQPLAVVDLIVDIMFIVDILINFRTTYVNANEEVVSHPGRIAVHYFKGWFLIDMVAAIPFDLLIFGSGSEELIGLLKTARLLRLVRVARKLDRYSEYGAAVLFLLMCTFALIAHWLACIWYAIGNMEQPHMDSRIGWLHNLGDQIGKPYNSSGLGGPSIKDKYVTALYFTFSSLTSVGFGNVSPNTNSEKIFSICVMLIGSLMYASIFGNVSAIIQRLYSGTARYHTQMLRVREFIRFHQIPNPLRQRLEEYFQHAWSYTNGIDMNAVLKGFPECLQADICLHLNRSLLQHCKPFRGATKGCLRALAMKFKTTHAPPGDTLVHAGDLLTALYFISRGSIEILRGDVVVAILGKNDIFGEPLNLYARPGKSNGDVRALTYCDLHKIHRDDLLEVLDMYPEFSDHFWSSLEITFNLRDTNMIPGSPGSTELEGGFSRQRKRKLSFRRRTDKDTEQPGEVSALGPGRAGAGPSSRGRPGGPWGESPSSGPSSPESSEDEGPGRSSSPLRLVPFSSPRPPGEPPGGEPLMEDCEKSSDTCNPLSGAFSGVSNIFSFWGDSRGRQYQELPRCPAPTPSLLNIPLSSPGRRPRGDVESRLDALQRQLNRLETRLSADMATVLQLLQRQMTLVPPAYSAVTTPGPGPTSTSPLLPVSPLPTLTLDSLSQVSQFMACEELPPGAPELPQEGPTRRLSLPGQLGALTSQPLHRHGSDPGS

Activity [12]: 41.6%
IC50 [15]: 17.1 µM
IC50 [18]: 12.8 µM
Papp at 2 h, 10 µM [23]: > 20 ×10⁻⁶ cm/s
Papp [33]: 0.416 ×10⁻⁶ cm/s
IC50 [40]: 11.6 µM
Compound: CC(C)C[C@H]1NC(=O)[C@H]([C@@H](C)OCc2ccccc2)NC(=O)[C@H]2CCCN2C(=O)CN2C(=O)c3ccccc3[C@@]2(O)CN(Cc2ccccc2)C(=O)[C@H](Cc2ccccc2)NC(=O)[C@H]2CCCN2C(=O)[C@H](Cc2c[nH]c3ccccc23)NC1=O
Activity [1]: Dose-Dependent Effect
fold change (FC) [2]: 2.186
fold change (FC) [3]: -1.18
fold change (FC) [4]: 1.968
Activity [5]: 18.9%
Activity [6]: 37.3%
fold change (FC) [7]: -3.288
fold change (FC) [8]: 1.175
fold change (FC) [9]: 1.584
fold change (FC) [10]: 1.751
Activity [11]: 0.02%
Activity [13]: 37.1%
IC50 at 48 h [14]: > 100 µM
inhibition (INH) [16]: Active
fold change (FC) [17]: 1.094
fold change (FC) [19]: 2.135
Activity [20]: Non-Toxic
Activity [21]: 0%
fold change (FC) [22]: 1.048
Activity [24]: 16.8%
Activity [25]: 18.9%
Activity [26]: Non-Toxic
fold change (FC) [27]: 1.448
Activity [28]: 20.2%
Activity [29]: Active
Activity [30]: 0%
Activity [31]: 28.7%
Activity [32]: 23.3%
fold change (FC) [34]: 1.529
fold change (FC) [35]: -1.578
Activity [36]: 27.8%
fold change (FC) [37]: 1.707
Activity [38]: Active
Activity [39]: Active
Activity [41]: 12.4%
fold change (FC) [42]: 1.218
